Results reported in patent US10874856B2, “Device for treating a cutaneous ulcer” (priority 2013, dated 2020).

How the values were obtained:
[1] = tested on: digital ulcers; conditions: cited from earlier work
[2] = tested on: Raynaud's attacks and ulcers; conditions: intravenous, versus placebo; cited from earlier work
[3] = Treprostinil quantification in dermal dialysate fluid (microdialysis, HPLC-MS/MS), forearm; format: in vivo, human; conditions: post-iontophoresis
Source text: The use of treprostinil to impregnate a primary dressing has the advantage of making it possible to cover larger areas of skin. However, it was not obvious that the results obtained by iontophoresis of treprostinil in liquid solution form in direct contact with the patient's skin could be obtained with the embodiment in accordance with the invention.

[4] = tested on: blood flow in the pad of the finger; experiment: Iontophoresis of treprostinil impregnating a primary dressing on the finger pad, laser speckle contrast imaging of blood flow; format: in vivo, human
Protocol: FIG. 3 reproduces an image obtained by laser speckle contrast imaging of blood flow in the pad of the index finger treated by iontophoresis of treprostinil impregnating a primary dressing and in the pad of the middle finger of the same hand treated by iontophoresis of 0.9% NaCl impregnating another primary dressing, in a healthy subject. The iontophoresis was carried out under the following conditions: 240 mC/cm^2, direct current. Two 7.2 cm^2 Ag—AgCl electrodes (Iogel, Iomed Inc., Salt Lake City, Utah, USA) were soaked in 1.5 ml of treprostinil or NaCl solution (double-blind).
These drug-soaked electrodes were connected to the cathode, while the anode was connected to passive electrodes attached at a distance of 10 cm. Low-voltage computer-controlled generators were used (PF 751 Perilont USB Power Supply, Perimed, Järfálla, Sweden). The voltage was recorded continuously in order to estimate the skin's resistance.
FIG. 4 reproduces an image obtained by laser speckle contrast imaging of blood flow in the pad of a ring finger treated by iontophoresis of treprostinil impregnating a primary dressing and in the pad of the middle finger of the same hand treated by iontophoresis of 0.9% NaCl, in a subject with scleroderma. The variation in blood flow is represented in same manner as in FIG. 3.

[5] = Treprostinil plasma assay (HPLC-MS/MS) after iontophoresis on forearm and fingers; format: in vivo, human; conditions: after iontophoresis for 20 minutes on the forearm and for 2 hours on the fingers
Protocol: However, the fact that the patient's skin is in extended contact with an active substance is likely to involve the systemic passage of treprostinil. The Inventors thus assayed treprostinil in the plasma using high-performance liquid chromatography coupled to tandem mass spectrometry after iontophoresis for 20 minutes on the forearm and for 2 hours on the fingers.

[6] = tested on: skin blood flow; conditions: 12 scleroderma patients, 250 μM, direct current, 240 mC/cm^2
[7] = Plasma treprostinil concentration in scleroderma patients post-iontophoresis; format: in vivo; conditions: human, other: cathodal iontophoresis, 250 μM, 30 minutes post-iontophoresis
[8] = tested on: skin blood flow; experiment: Continuous cathodal iontophoresis on the forearm of healthy volunteers, skin blood flow by laser Doppler imaging; format: in vivo, human; conditions: 250 μM treprostinil, cathodal iontophoresis 20 minutes
Protocol: A clinical study then included 20 healthy volunteers. These subjects received 3 concentrations of treprostinil via continuous cathodal iontophoresis on the forearm for 20 minutes and a control iontophoresis of 0.9% NaCl. Skin blood flow was quantified by laser Doppler imaging.
This effect is expressed as cutaneous vascular conductance (CVC; percentage of the baseline) recorded up to 24 hours.
To implement iontophoresis on the forearm, several iontophoresis chambers containing treprostinil liquid solution in contact with a cathode, and an anode at a distance of about 15 cm from the cathode, are placed on the inside of the forearm of each patient. […] Treprostinil liquid solution was in direct contact with the subject's skin.

[9] = tested on: skin blood flow; conditions: rat

## COc1ccccc1Oc1c(NS(=O)(=O)c2ccc(C(C)(C)C)cc2)nc(-c2ncccn2)nc1OCCO [bosentan]
[1]; RAPIDS-2 study
  risk of developing new ulcers: significantly reduced the risk
[1]; in vivo
  healing of preexisting ulcers: no advantage

## CC#CCC(C)[C@H](O)/C=C/[C@@H]1[C@H]2C/C(=C/CCCC(=O)O)C[C@H]2C[C@H]1O (stereo partly drawn) [iloprost]
[2]
  frequency of Raynaud's attacks and healing time of ulcers: provided an advantage

## CCCCC[C@H](O)CC[C@@H]1[C@H]2Cc3cccc(OCC(=O)O)c3C[C@H]2C[C@H]1O [treprostinil]
[3]
  time treprostinil present in the dermis of the forearm (average): up to 8 hours
[4]; healthy subject, index finger, 240 mC/cm^2, direct current
  vasomotor effect on finger pad, healthy subject (FIG. 3): marked vasomotor effect
[4]; subject with scleroderma, ring finger
  vasomotor effect on finger pad, subject with scleroderma (FIG. 4): marked vasomotor effect
[5]
  systemic passage (plasma quantification): negligible systemic passage
[6]
  skin blood flow: increase in skin blood flow
  tolerance: well tolerated
[7]
  concentration at 30 min: < 1.8 pg/mL
[8]
  cutaneous vascular conductance AUC80 min: 31,897±24,390 % BL·min
[9]; 20 minutes of cathodal iontophoresis at 100 μA, liquid solution in direct contact with skin
  cutaneous vasodilatation: caused cutaneous vasodilatation
[9]; cathodal iontophoresis
  persistence of effect after iontophoresis is over: at least 60 minutes
[9]; in vivo
  local toxicity, clinically and after systematic skin biopsies: No sign of local toxicity
[9]; no current or anodal current
  effect on skin blood flow absent current or with anodal current: no effect on skin blood flow
